Data taken from article PMC11213822, “Copper resistance in the cold: Genome analysis and characterisation of a PIB‐1 ATPase in Bizionia argentinensis” (Environmental Microbiology Reports, 2024).

B1: BaCopA1 (Bizionia argentinensis JUB59) (protein)
chain: MTCNGCRSHVEEILSKVKYVLKASVDLEKEEATIEMESHIPIEKFQNALKNDGGRYSIHKNPLPGSPKGRSNKTDKSKSEKSPLRGLGDTFYCPMHCEGDKIYDKPGDCPVCGMDLVEEQNLSTSNSEQWTCPMHPEVVKDEAGPCPICGMDLVPMQADSSAEEKTYKKLLKKFWIASIFTLPIFIMAMSEMLTNNPLYDIMDQKNWNWVQFALSIPVVFYATWMFFERAYKSIKTWNLNMFTLIGIGAGVAWLFSVFGMFFPDVFPSQFRSESGAVHVYFEAATVILTLVLLGQLLEARAHSKTNSAVKELLKLAPNKATKVVNGEDVEVSIDNIELNDILKVKPGDKIPVDGVITEGVTTIDESMITGEPVPVDKTEGDKVSSGTINGNQSFLMKAEKVGSHTLLSQIIHMVNTASRSRAPIQNLADKVSGYFVPVVVLISLITFAVWAIWGPEPAYVYALVNAIAVLIIACPCALGLATPMSVMVGVGKGAQNGVLIKNAEALEKLDKVDTLIVDKTGTITEGKPTVEKMGAFSDVFSESDVLQYIVSLNSNSEHPLAEATVKYGKEQKAEIIKSDAFSAVTGKGVEATINNKKVALGNPKMMEYAQAEITSQMQDEAKTYQKQGKTVSYLAIDKIVIGYVVIGDKIKATSAKAIKELQDKGIAVIMLTGDNHDTAQAVASELNLADFKASMLPEDKLKEVEKLQKEGKVVAMAGDGINDAPALAKSDVGIAMGTGTDVAIESAMITLVKGDLNGIVKAKHLSHAVMKNIKQNLFFALIYNTLGVPIAAGVLFPIFGILLSPMIAALAMSFSSVSVIANALRLRTIKI

What was measured:
BaCopA1 = molecular target: T1, BaCopA1 (Bizionia argentinensis, UniProt G2EDW3); assay: time course of Pi release, malachite green; format: biochemical; details: 2.0 mM ATP, 2.0 mM MgCl2, 0.1 mM CuSO4, 20 mM cysteine, pH 8.0, 5 °C; 10 μM vanadate
T1 construct: gene BZARG_1779; C-terminal TEV site-GFP-His tag not removed (tag printed as His6 and his8); expressed in S. cerevisiae FGY217, detergent-solubilised, Ni-NTA purified in C12E10

purified protein = substrate: Nc1ncnc2c1ncn2[C@@H]1O[C@H](COP(=O)(O)OP(=O)(O)OP(=O)(O)O)[C@@H](O)[C@H]1O; assay: purified protein; details: free Mg2+ 0.25 mM, 0.1 mM CuSO4, 20 mM cysteine, asolectin/C12E10, pH 8.0, 5 °C

Molecule	inhibition at 10 μM (BaCopA1)	Km (purified protein) [mM]
[O]=[V]([OH])([OH])[OH] [vanadate]	an inhibitory effect of ATPase activity occurs with the addition of vanadate	
B1		0.15 ± 0.03
